Legend:
sAPP = conditions: cited from earlier work
113pS K+ channels = conditions: cited from earlier work
PC12 cells = conditions: cited from earlier work
[1] = test system: LNCaP prostate cancer cells; experiment: Induction of apoptosis in LNCaP prostate cancer cells (DAPI staining); type: cell-based
Experimental: The capacity of inducing apoptosis by compound (1) was evaluated in a model of LNCaP prostate cancer cells. It is well established that in this model phorbol esters (e.g., PMA) activate PKC to induce apoptosis (reference 13). LNCaP cells were treated with compound (1) for 1 h, and apoptosis was assessed 24 h later.
Control cells or cells infected for 14 h with adenoviruses for LacZ, PKCα, or PKCδ (multiplicity of infection=10 pfu/cell) were treated with different concentrations of compound (1) or PMA for 1 h. Cells were collected 24 h later and stained with DAPI. The incidence of apoptosis in each preparation was analyzed by counting 500 cells and determining the percentage of apoptotic cells. Results are the mean±standard error of three independent experiments.
It is well established that PKCα and PKCδ are the isozymes that mediate phorbol ester-induced apoptosis in LNCaP cells (references 13c-e). A model that has been used to assess isozyme-specificity is the overexpression of specific PKCs by an adenoviral system. Infection of LNCaP cells with adenoviruses for PKCs leads to a high expression of the corresponding PKC isozyme, as determined by Western-blot analysis, kinase activity, or [^3H]PDBu binding (reference 13e).

Q: What does the source list for `CCCCCCCCC#Cc1ccc2c(c1)C[C@@H](CO)NC(=O)[C@H](C(C)C)N2C` [BL, (2S, 5S)-8-(1-decynyl)benzolactam]?
A: sAPP secretion in control fibroblasts (sAPP; control fibroblasts, 10 μM BL): significant increases of sAPP secretion; sAPP secretion over basal levels (sAPP; fibroblasts): enhance sAPP secretion over basal levels; responsiveness of AD fibroblast cell lines to the TEA challenge (113pS K+ channels): restored the responsiveness; sAPP secretion (PC12 cells): ~3 fold

Q: For `CCCCCCCCCCCCCC(=O)O[C@@H]1[C@@H](C)[C@@]2(O)[C@@H](C=C(CO)C[C@]3(O)C(=O)C(C)=C[C@@H]23)[C@@H]2C(C)(C)[C@]12OC(C)=O` [PMA, reference compound], which “apoptotic effect with control adenovirus” value ([1]; LNCaP cells infected with LacZ adenovirus) is on record?
A: Its value is “did not affect the apoptotic effect”.

Q: What about the “apoptotic response with overexpression of PKC isozymes” value ([1]; LNCaP cells infected with adenoviruses for PKCα or PKCδ) of the same compound?
A: The value was “marked potentation”.

Q: Which “effect on BL-induced sAPP secretion” value (sAPP; control and AD fibroblasts) does the source give for `CN[C@@H]1C[C@H]2O[C@@](C)([C@@H]1OC)n1c3ccccc3c3c4c(c5c6ccccc6n2c5c31)C(=O)NC4` [Staurosporine] here?
A: The value was “eliminated the effects of BL”.

— patent US20040019018A1, “Rigid pyrrolidone modulators of pkc” (priority 2003, published 2004)
